The numbers were not newly measured in patent publication US11123365B2, “Compositions comprising palmitoylethanolamide and hydrogen water, and methods thereof” (Perricone Hydrogen Water Company, LLC, priority 2019, dated 2021), which cites them from elsewhere.

Regarding `CCCCCCCCCCCCCCCC(=O)NCCO` [palmitoylethanolamide], the solubility in water result is listed as “less than 20 mM”.
